Here are results for four compounds from ChEMBL document CHEMBL1138347, “Multi-target-directed drug design strategy: from a dual binding site acetylcholinesterase inhibitor to a trifunctional compound against Alzheimer's disease” (J Med Chem, 2007).

Usually IC50 stands for the concentration needed to halve the response being measured.

One assay addresses Acetylcholinesterase (Homo sapiens, UniProt P22303).
Another assay concerns the target Cholinesterase (Homo sapiens, UniProt P06276).
Assay [1] in a line: Inhibition of human AChE-induced amyloid-beta (1-40) aggregation by thioflavin T fluorescene method.

Cholinesterase, sequence (P06276 whole entry): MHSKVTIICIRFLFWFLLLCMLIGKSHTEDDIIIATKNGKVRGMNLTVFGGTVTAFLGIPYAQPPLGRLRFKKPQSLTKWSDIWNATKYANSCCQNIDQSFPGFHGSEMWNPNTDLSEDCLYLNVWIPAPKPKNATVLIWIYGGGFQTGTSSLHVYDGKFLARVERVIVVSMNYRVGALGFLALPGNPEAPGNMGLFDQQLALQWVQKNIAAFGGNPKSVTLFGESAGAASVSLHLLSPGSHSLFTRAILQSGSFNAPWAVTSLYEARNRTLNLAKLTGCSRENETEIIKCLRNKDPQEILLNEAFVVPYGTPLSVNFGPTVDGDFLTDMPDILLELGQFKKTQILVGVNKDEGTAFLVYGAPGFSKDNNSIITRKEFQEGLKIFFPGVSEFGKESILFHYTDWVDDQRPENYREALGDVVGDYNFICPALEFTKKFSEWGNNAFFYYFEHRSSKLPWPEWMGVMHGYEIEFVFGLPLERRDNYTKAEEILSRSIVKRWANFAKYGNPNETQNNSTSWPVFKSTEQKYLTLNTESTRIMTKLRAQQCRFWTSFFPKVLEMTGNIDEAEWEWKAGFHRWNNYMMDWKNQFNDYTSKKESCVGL
Acetylcholinesterase, sequence (P22303 whole entry): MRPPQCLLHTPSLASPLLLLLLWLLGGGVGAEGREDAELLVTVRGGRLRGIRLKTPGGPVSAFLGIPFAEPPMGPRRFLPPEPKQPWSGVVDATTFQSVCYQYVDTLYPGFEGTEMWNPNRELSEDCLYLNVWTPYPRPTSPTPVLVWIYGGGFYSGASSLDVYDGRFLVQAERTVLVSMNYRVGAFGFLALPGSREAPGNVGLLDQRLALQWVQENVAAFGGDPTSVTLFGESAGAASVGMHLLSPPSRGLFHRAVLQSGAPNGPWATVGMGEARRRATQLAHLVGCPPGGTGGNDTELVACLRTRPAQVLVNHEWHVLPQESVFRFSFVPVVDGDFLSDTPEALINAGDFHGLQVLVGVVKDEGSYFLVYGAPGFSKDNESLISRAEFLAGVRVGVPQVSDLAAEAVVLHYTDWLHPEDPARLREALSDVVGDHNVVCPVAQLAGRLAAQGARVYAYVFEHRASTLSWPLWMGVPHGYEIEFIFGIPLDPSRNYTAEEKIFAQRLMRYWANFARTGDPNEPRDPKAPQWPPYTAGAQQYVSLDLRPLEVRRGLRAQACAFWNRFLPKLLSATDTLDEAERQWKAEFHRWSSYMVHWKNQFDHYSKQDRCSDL
Description for Acetylcholinesterase: Inhibition of human serum recombinant AChE by Ellman's method

For the compound `c1ccc2c(NCCOCCOCCNc3c4c(nc5ccccc35)CCCC4)c3c(nc2c1)CCCC3`, the IC50 came out at 19.7 nM against Acetylcholinesterase and 35.1 nM on Cholinesterase. Take `c1ccc2c(NCCCCCCCNc3c4c(nc5ccccc35)CCCC4)c3c(nc2c1)CCCC3`: the values for the IC50 (in assay [1]; at Cholinesterase) were 41700 nM and 5.66 nM, respectively. In the case of `O=C(CCCNc1c2c(nc3ccccc13)CCCC2)CCCNc1c2c(nc3ccccc13)CCCC2`, at Cholinesterase, half-maximal inhibition (IC50) required 11.3 nM. Turning to `O=C(NCCNc1c2c(nc3ccccc13)CCCC2)C(=O)NCCNc1c2c(nc3ccccc13)CCCC2`, the results for the half-maximal inhibitory concentration (IC50) against Acetylcholinesterase and on Cholinesterase were 6.65 nM and 5.44 nM, respectively.
